# Reference: patent US12343363B2, “Lactic acid bacterial composition for the treatment of bacterial vaginal infections by Gardnerella vaginalis and, if present, of concurrent fungal infections” (PROBIOTICAL S.P.A., priority 2016, dated 2025)
# How the values were obtained:
# [1] = system: Candida krusei ATCC 6258; assay: Fluconazole MIC by E-test; format: cell-based; details: Pichia kudriavzevii, ATCC6258; E_test, range 0.016-256 μg/ml; read-out: MIC (minimum inhibitory concentration)
# Description: (§1) The strains of Candida being used in the present study were purchased from the American Type Culture Collection (ATCC). Specifically, the following biotypes were used: C. albicans ATCC 10231, C. parapsilosis ATCC 22019, C. krusei ATCC 6258, C. glabrata ATCC 2001 and C. tropicalis ATCC 750 (14). The strains of lactobacilli of this study, all isolated from vaginal swabs of healthy female subjects or directly brushing the intestinal mucosa of healthy humans, were classified based on their phenotypic and genotypic characteristics: L. fermentum LF5 (DSM 32277), L. fermentum LF09 (DSM 18298), L. fermentum LF10 (DSM 19187) and L. fermentum LF11 (DSM 19188).
# (§2) Evaluation of the fungicidal activity. The minimum inhibitory concentration (MIC) for fluconazole was determined by E-test (bioMerieux Italy, Florence) with MHE agar. The plates were incubated under aerobic conditions at 30° C. and read after 24 hours. Furthermore, since there is no specific E-test for miconazole, the MIC was determined by using the broth macrodilution method. We assessed the activity of serially diluted fluconazole and miconazole (Sigma-Aldrich, Missouri, USA) (from […] to […]) against the Candida strains. Serial dilutions of azoles were prepared in Sabouraud Dextrose Broth in the presence of strains of Candida and broths were incubated under aerobic conditions at 30° C. and then read at an optical density (DO) of 560 nm.
# [2] = system: Candida parapsilosis ATCC 22019; assay: Fluconazole MIC by E-test; format: cell-based; details: Lodderomyces parapsilosis, ATCC22019; E_test, range 0.016-256 μg/ml; read-out: MIC (minimum inhibitory concentration)
# Description: as §1, §2
# [3] = system: Candida glabrata ATCC 2001; assay: Fluconazole MIC by E-test; format: cell-based; details: Nakaseomyces glabratus, ATCC2001; E_test, range 0.016-256 μg/ml; read-out: MIC (minimum inhibitory concentration)
# Description: as §1, §2
# [4] = system: Candida tropicalis ATCC 750; assay: Fluconazole MIC by E-test; format: cell-based; details: ATCC750, E_test, range 0.016-256 μg/ml, read-out: MIC (minimum inhibitory concentration)
# Description: as §1, §2
# [5] = system: C. krusei ATCC 6258; assay: Miconazole broth macrodilution test (optical density); format: cell-based, Candida krusei
# Description: as §1
# (§3) The probiotic strains were cultured overnight in De Man, Rogosa and Sharpe (MRS) medium (Difco, B D, Maryland). In all the experiments, fresh culture media for all the strains of Candida were used. Before the experiment, the single strains of Candida were cultured in Sabouraud Dextrose Broth (Difco, B D, Maryland), an optimal medium for yeasts, for 48 hours under aerobic conditions.
# as §2
# [6] = system: C. parapsilosis ATCC 22019; assay: as above; format: cell-based, Candida parapsilosis
# Description: as §1, §3, §2
# [7] = system: C. albicans ATCC 10231; assay: as above; format: cell-based, Candida albicans
# Description: as §1, §3, §2
# [8] = system: C. glabrata ATCC 2001; assay: as above; format: cell-based, Candida glabrata
# Description: as §1, §3, §2
# [9] = system: Candida albicans; assay: Single-blind clinical study of LF5 vaginal capsules compared with miconazole; format: in vivo, human
# Method: 100 patients with vaginal candidiasis, average age of 38.0 years (range 19-61 years) randomly assigned to two groups, which resulted homogeneous, each of 50 patients treated with miconazole or LF5 dosed at ≤10^9 in vaginal capsule formulation at a dosage of 1 vaginal capsule at night for three consecutive days, according to the single-blind experimental design were treated.
# No discontinuations during the treatment nor during the two weeks of post-treatment observation occurred; thus two groups of 50 observations for efficacy and tolerability are provided.
# [10] = system: C. tropicalis ATCC 750; assay: Miconazole broth macrodilution test (optical density); format: cell-based, Candida tropicalis
# Description: as §1, §3, §2
# [11] = Miconazole 1 μg/ml, broth macrodilution
smiles,measurement,setting,value
OC(Cn1cncn1)(Cn1cncn1)c1ccc(F)cc1F [fluconazole],MIC,[1],> 256 µg/mL
same,MIC,[2],1 µg/mL
same,MIC,[3],> 256 µg/mL
same,MIC,[4],> 256 µg/mL
"Clc1ccc(COC(Cn2ccnc2)c2ccc(Cl)cc2Cl)c(Cl)c1 (stereo not drawn) [Miconazole, miconazole]","optical density, OD",[5]; Miconazole 1.000 μg/ml,1.972
same,"optical density, OD",[5]; [11],1.990
same,"optical density, OD",[5]; Miconazole 2.50 μg/ml,1.900
same,"optical density, OD",[5]; Miconazole 5.00 μg/ml,1.893
same,"optical density, OD",[5]; Miconazole 50 μg/ml,1.994
same,"optical density, OD",[5]; Miconazole 250 μg/ml,2.004
same,"optical density, OD",[5]; Miconazole 300 μg/ml,1.999
same,"optical density, OD",[5]; Miconazole 500 μg/ml,1.988
same,MIC,"[6]; Lodderomyces parapsilosis, ATCC22019, C. parapsilosis ATCC 22019",1000 µg/mL
same,"optical density, OD",[6]; Miconazole 1.000 μg/ml,0.295
same,"optical density, OD",[6]; [11],1.515
same,"optical density, OD",[6]; Miconazole 2.50 μg/ml,1.115
same,"optical density, OD",[6]; Miconazole 5.00 μg/ml,0.975
same,"optical density, OD",[6]; Miconazole 50 μg/ml,0.894
same,"optical density, OD",[6]; Miconazole 250 μg/ml,0.701
same,"optical density, OD",[6]; Miconazole 300 μg/ml,0.415
same,"optical density, OD",[6]; Miconazole 500 μg/ml,0.314
same,"optical density, OD",[7]; Miconazole 1.000 μg/ml,1.464
same,"optical density, OD",[7]; [11],1.906
same,"optical density, OD",[7]; Miconazole 2.50 μg/ml,1.910
same,"optical density, OD",[7]; Miconazole 5.00 μg/ml,1.901
same,"optical density, OD",[7]; Miconazole 50 μg/ml,1.905
same,"optical density, OD",[7]; Miconazole 250 μg/ml,1.916
same,"optical density, OD",[7]; Miconazole 300 μg/ml,1.889
same,"optical density, OD",[7]; Miconazole 500 μg/ml,1.863
same,"optical density, OD",[8]; Miconazole 1.000 μg/ml,2.198
same,"optical density, OD",[8]; [11],2.260
same,"optical density, OD",[8]; Miconazole 2.50 μg/ml,2.260
same,"optical density, OD",[8]; Miconazole 5.00 μg/ml,2.246
same,"optical density, OD",[8]; Miconazole 50 μg/ml,2.239
same,"optical density, OD",[8]; Miconazole 250 μg/ml,2.212
same,"optical density, OD",[8]; Miconazole 300 μg/ml,2.215
same,"optical density, OD",[8]; Miconazole 500 μg/ml,2.213
same,local adverse events,[9]; 50 patients per group,6 cases
same,Positive/negative,"[9]; 3 days, 1 vaginal capsule at night for three consecutive days, 50 patients per group",3/47
same,Positive/negative,"[9]; Final (two weeks of post-treatment observation), 50 patients per group",8/42
same,"microbiological eradication of Candida, patients",[9]; at the end of the three-day treatment,94%
same,frequency of local adverse events,"[9]; female, human, in vivo, 3 days",12%
same,Adverse events: Adverse,[9]; number of 50 patients,47
same,Adverse events: Present,[9]; number of 50 patients,3
same,Eradication: Failure,[9]; number of 50 patients,3
same,Eradication: Relapse,[9]; number of 50 patients,5
same,Eradication: Success,[9]; number of 50 patients,42
same,Patient's opinion about efficacy: Acceptable,[9]; number of 50 patients,5
same,Patient's opinion about efficacy: Excellent,[9]; number of 50 patients,38
same,Patient's opinion about efficacy: Good,[9]; number of 50 patients,4
same,Patient's opinion about efficacy: None,[9]; number of 50 patients,3
same,Tolerability opinion: Acceptable,[9]; number of 50 patients,3
same,Tolerability opinion: Excellent,[9]; number of 50 patients,44
same,Tolerability opinion: Good,[9]; number of 50 patients,3
same,Tolerability opinion: None,[9]; number of 50 patients,0
same,"optical density, OD",[10]; Miconazole 1.000 μg/ml,1.931
same,"optical density, OD",[10]; [11],1.950
same,"optical density, OD",[10]; Miconazole 2.50 μg/ml,1.927
same,"optical density, OD",[10]; Miconazole 5.00 μg/ml,1.908
same,"optical density, OD",[10]; Miconazole 50 μg/ml,1.846
same,"optical density, OD",[10]; Miconazole 250 μg/ml,1.942
same,"optical density, OD",[10]; Miconazole 300 μg/ml,1.937
same,"optical density, OD",[10]; Miconazole 500 μg/ml,1.903
